Measured values as given in ChEMBL document CHEMBL1145470, “Identification of the novel narrow-spectrum beta-lactamase SCO-1 in Acinetobacter spp. from Argentina” (Antimicrob Agents Chemother, 2007).
pIC50: −log10 of the molar value. Values after ≈ are worked out from the molar mass of the structure shown.

Columns and labels:
Acinetobacter johnsonii [1] = assay: Ratio of kcat to Km for Acinetobacter johnsonii SCO1
Acinetobacter johnsonii [2] = assay: Antibacterial activity against Acinetobacter johnsonii 7037 expressing SCO1 by agar dilution technique; assay type: functional
Acinetobacter johnsonii [3] = assay: Activity of Acinetobacter johnsonii SCO1
Escherichia coli [4] = assay: Antibacterial activity against Escherichia coli DH10B expressing SCO1 by agar dilution technique; assay type: functional
Escherichia coli [5] = assay: Antibacterial activity against Escherichia coli DH10B by agar dilution technique; assay type: functional
[6] = Inhibition of Acinetobacter johnsonii SCO1

Structure (SMILES)	Ratio (Acinetobacter johnsonii [1])	MIC (Acinetobacter johnsonii [2])	Km (Acinetobacter johnsonii [3])	kcat (Acinetobacter johnsonii [3])	MIC (Escherichia coli [4])	MIC (Escherichia coli [5])	pIC50 [6]
C[C@@H](O)[C@H]1C(=O)N2C(C(=O)O)=C(SCCNC=N)C[C@H]12 [IMIPENEM ANHYDROUS]	0.008 mM⁻¹ s⁻¹	0.12 µg/mL (≈ 0.401 µM)	3800 µM	0.03 s⁻¹	–	–	–
CC(=O)OCC1=C(C(=O)O)N2C(=O)[C@@H](NC(=O)Cc3cccs3)[C@H]2SC1 [CEPHALOTHIN]	1 mM⁻¹ s⁻¹	> 512 µg/mL	120 µM	0.1 s⁻¹	8 µg/mL (≈ 20.2 µM)	2 µg/mL (≈ 5.04 µM)	–
CC1(C)S[C@@H]2[C@H](NC(=O)[C@H](C(=O)O)c3ccsc3)C(=O)N2[C@H]1C(=O)O [TICARCILLIN]	450 mM⁻¹ s⁻¹	> 512 µg/mL	80 µM	35 s⁻¹	> 512 µg/mL	2 µg/mL (≈ 5.2 µM)	–
C[C@@H](O)[C@H]1C(=O)N2C(C(=O)O)=C(S[C@@H]3CN[C@H](C(=O)N(C)C)C3)[C@H](C)[C@H]12	–	–	–	< 0.01 s⁻¹	–	–	–
CC1(C)S[C@@H]2[C@H](NC(=O)[C@H](N)c3ccccc3)C(=O)N2[C@H]1C(=O)O	6700 mM⁻¹ s⁻¹	–	40 µM	270 s⁻¹	–	–	–
CO/N=C(\C(=O)N[C@@H]1C(=O)N2C(C(=O)O)=C(COC(C)=O)CS[C@H]12)c1csc(N)n1 [CEFOTAXIME]	0.05 mM⁻¹ s⁻¹	> 512 µg/mL	2000 µM	0.1 s⁻¹	0.25 µg/mL (≈ 0.549 µM)	0.12 µg/mL (≈ 0.263 µM)	–
CO/N=C(\C(=O)N[C@@H]1C(=O)N2C(C(=O)[O-])=C(C[N+]3(C)CCCC3)CS[C@H]12)c1csc(N)n1 [CEFEPIME]	0.8 mM⁻¹ s⁻¹	> 512 µg/mL	> 2000 µM	> 1.5 s⁻¹	0.12 µg/mL (≈ 0.25 µM)	–	–
CCN1CCN(C(=O)N[C@@H](C(=O)N[C@@H]2C(=O)N3[C@@H]2SC(C)(C)[C@@H]3C(=O)O)c2ccccc2)C(=O)C1=O [PIPERACILLIN]	40 mM⁻¹ s⁻¹	64 µg/mL (≈ 124 µM)	10 µM	0.4 s⁻¹	128 µg/mL (≈ 247 µM)	1 µg/mL (≈ 1.93 µM)	–
CO/N=C(\C(=O)N[C@@H]1C(=O)N2C(C(=O)O)=C(COC(N)=O)CS[C@H]12)c1ccco1 [CEFUROXIME]	0.08 mM⁻¹ s⁻¹	> 512 µg/mL	650 µM	0.05 s⁻¹	4 µg/mL (≈ 9.43 µM)	2 µg/mL (≈ 4.71 µM)	–
C[C@H]1[C@H](NC(=O)/C(=N\OC(C)(C)C(=O)O)c2csc(N)n2)C(=O)N1S(=O)(=O)O [AZTREONAM]	–	> 512 µg/mL	–	< 0.01 s⁻¹	–	–	–
CC1(C)S[C@@H]2[C@H](NC(=O)Cc3ccccc3)C(=O)N2[C@H]1C(=O)O	7500 mM⁻¹ s⁻¹	–	20 µM	150 s⁻¹	–	–	–
CO[C@@]1(NC(=O)Cc2cccs2)C(=O)N2C(C(=O)O)=C(COC(N)=O)CS[C@@H]21 [CEFOXITIN]	–	> 512 µg/mL	–	< 0.01 s⁻¹	4 µg/mL (≈ 9.36 µM)	4 µg/mL (≈ 9.36 µM)	–
C[C@]1(Cn2ccnn2)[C@H](C(=O)O)N2C(=O)C[C@H]2S1(=O)=O [TAZOBACTAM]	–	–	–	–	–	–	5.92
CC1(C)S[C@@H]2[C@H](NC(=O)[C@H](N)c3ccc(O)cc3)C(=O)N2[C@H]1C(=O)O [AMOXICILLIN]	–	> 512 µg/mL	–	–	> 512 µg/mL	2 µg/mL (≈ 5.47 µM)	–
CC(C)(O/N=C(\C(=O)N[C@@H]1C(=O)N2C(C(=O)[O-])=C(C[n+]3ccccc3)CS[C@H]12)c1csc(N)n1)C(=O)O [CEFTAZIDIME]	0.5 mM⁻¹ s⁻¹	> 512 µg/mL	600 µM	0.3 s⁻¹	0.5 µg/mL (≈ 0.915 µM)	0.06 µg/mL (≈ 0.11 µM)	–
O=C(O)[C@H]1/C(=C/CO)O[C@@H]2CC(=O)N21 [CLAVULANIC ACID]	–	–	–	–	–	–	6.52
